Common to all, as to test: NCI tumour cell line growth inhibition, 48 h
The test system of experiment [1] is KM12 colon.
Experiment [2] has as its system UACC-257 melanoma.
The test system of experiment [3] is LXFL 529 NSCLC.
Experiment [4] deals with HL-60(TB) leukemia.
Experiment [5] concerns A549 NSCLC.
The test system of experiment [6] is HT29 colon.
Experiment [7] has as its system DMS 114 small cell lung.
Experiment [8] deals with DMS 273 small cell lung.
Experiment [9] concerns BT-549 breast.
For experiment [10], the system named is NCI/ADR-RES ovarian.

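The compound was tested at five concentrations on cells cultured in 96-well plates, with a 48-hour exposure period. GI50 is the concentration that inhibits growth by half. TGI is the concentration that stops growth completely.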

For `COC(=O)/C(C#N)=C1\CCC(O)N1` (stereo not drawn), the TGI in [1], in [2], in [3], in experiment [4], in [5] and in [6] was greater than 100 µM in each case. For the same compound, the TGI in [7] and in experiment [8] was greater than 100 µM in each case.
Turning to `CN[C@@H](C)[C@H](NC)c1ccccc1`, the TGI in [1], in experiment [2], in experiment [3], in experiment [4], in [5] and in [6] was greater than 100 µM throughout. Further, the TGI in [7] and in experiment [8] was greater than 100 µM in each case.
With `CC(=O)c1sc(-c2nc(C)c(C(=O)/C=C\c3ccc(/C=C\C(=O)c4sc(-c5nc(C)c(C(C)=O)s5)nc4C)cc3)s2)nc1C`, the TGI in experiment [1], in experiment [2], in experiment [3], in [4], in [5] and in experiment [6] was greater than 100 µM each time. Moreover, the TGI in experiment [7] and in [8] was greater than 100 µM throughout.
Regarding `O=C(Cc1ccccc1)NN1C(=O)C(Cl)C1c1ccc(O)cc1` (stereo not drawn), the TGI in experiment [1], in [2], in experiment [4], in experiment [5], in experiment [6] and in experiment [7] was greater than 100 µM throughout. In addition, in experiment [8], the TGI is greater than 100 µM.
Consider `O=c1[nH]c2cc(Cl)ccc2nc1/C(=N\O)C(O)c1ccc(Cl)cc1Cl` (stereo not drawn), for which the TGI in experiment [1], in [2], in [3], in experiment [4], in experiment [5] and in experiment [6] was greater than 100 µM throughout. The TGI in experiment [7] and in [8] was greater than 100 µM in each case.
For `O=C1Nc2c(ccc(Cl)c2I)C1=O`, the TGI in [1] is 65.6 µM; in experiment [3] it was 27.5 µM; in experiment [4] it was 48.1 µM; in experiment [5], greater than 100 µM; in [6], greater than 100 µM; in [7], 30.1 µM. The compound further came in with a TGI in [8] of 37 µM.
In the case of `COc1ccc(C2c3cc(OC)c(OC)cc3C(Cc3ccc([N+](=O)[O-])cc3)C2c2ccc([N+](=O)[O-])cc2)cc1OC` (stereo not drawn), the TGI in [1], in experiment [2], in experiment [3], in [4], in [5] and in experiment [6] was greater than 100 µM in each case. For the same compound, the TGI in [7] and in [8] was greater than 100 µM each time.
As to `Cc1cc(NS(=O)(=O)c2ccc(Nc3c4ccccc4nc4c(C(=O)NCCN(C)C)cccc34)cc2)no1`, the TGI in [1] is greater than 100 µM; in [3] it was greater than 100 µM; in experiment [4], 0.472 µM; in experiment [5], 71 µM; in experiment [6], greater than 100 µM; in [7], 14 µM. Moreover, the TGI in experiment [8] is greater than 100 µM.
Regarding `CCCCCCCCCCCCCCCCCC(=O)O[C@H](COC(=O)CCCCCCCCCCC)COC(=O)CCCCCCCCCCCCCCC`, the TGI in experiment [2], in experiment [3], in experiment [4], in experiment [5], in experiment [6] and in [7] was greater than 100 µM throughout. In experiment [8], this compound returned a TGI greater than 100 µM.
For the compound `COc1cccc(-n2c3nc(=O)n(C)c(=O)c-3nc3ccccc32)c1`, the TGI in [1] is greater than 100 µM; in experiment [2] it was 33.8 µM; in experiment [3], 81.8 µM; in [4], 28.2 µM; in [5], 52.2 µM; in [6] it was 40.8 µM. Also, the TGI was 25.4 µM in experiment [7] and 30.9 µM in [8].
Take `COC(=O)N/N=C(\C)C(CN1CCCCC1)C(C1=C(O)c2ccccc2OC1)c1ccccc1` (stereo not drawn): the TGI in experiment [1], in [2], in experiment [3], in [4], in [5] and in [6] was greater than 100 µM throughout. For the same compound, the TGI in [7] and in experiment [8] was greater than 100 µM each time.
In the case of `O=C1CC2C(=O)N(Cc3ccccc3)C1C=C2S(=O)(=O)c1ccccc1` (stereo not drawn), the TGI in [1], in [2], in [3], in [4], in experiment [5] and in experiment [6] was greater than 100 µM in each case. The same compound displayed a TGI in experiment [7] greater than 100 µM.
For `COc1ccc2[nH]c3c4c(ccc3c2c1)C(=O)C=CC4=O`, the TGI was 49.1 µM in [1]; 27.7 µM in experiment [2]; 14.8 µM in [3]; 1.11 µM in experiment [4]; 62.8 µM in experiment [5]; 46.9 µM in [6]. Further, the TGI in experiment [7] came out at 27 µM; in experiment [8] it was 32 µM; in experiment [9], 84.9 µM.
With `COC(=O)/C(C)=C/[N+](=O)[O-]`, the TGI in experiment [1] stood at 32.9 µM; in [2] it was 29.3 µM; in [3], 27.9 µM; in [4], 40.1 µM; in experiment [5], 44.1 µM; in experiment [6], 43.2 µM. Also, the values for the TGI in experiment [7] and in [8] were 35.3 µM and 34.6 µM, respectively.
Consider `[Au+].[Au+].[Au+].[c-]1nccn1Cc1ccccc1.[c-]1nccn1Cc1ccccc1.[c-]1nccn1Cc1ccccc1`, for which the GI50 was 7.75 µM in experiment [1]; 3.71 µM in experiment [2]; 1.83 µM in [3]; 58 µM in [10]; 3.16 µM in experiment [4]; 24.7 µM in experiment [5]. Further, the GI50 in [6] is 16.9 µM; in experiment [7] it was 1.65 µM; in experiment [8] it was 1.66 µM; in experiment [9], 5.35 µM. Moreover, the TGI was 39.9 µM in experiment [1]; 7.5 µM in [2]; 3.22 µM in [3]; greater than 100 µM in experiment [10]; 16 µM in experiment [4]; 65.4 µM in experiment [5]. Further, the TGI in experiment [6] was greater than 77.4 µM; in experiment [7] it was 3.13 µM; in [8], 3.23 µM; in [9], 42.5 µM.

(Values after PubChem BioAssay (NCI).)
